In patent US20250127789A1, “COMPOSITIONS USEFUL FOR MODULATING SPLICING” (SKYHAWK THERAPEUTICS, INC., priority 2021, published 2025):

Legend:
[1] = test system: total ATXN3 protein in SK-N-MC cells; experiment: ATXN3 total protein assay (MSD); format: cell-based; conditions: Human neuroblastoma SK-N-MC cells, 48 hours incubation, read-out: ATXN3 Protein Potency IC50
Protocol: Human neuroblastoma SK-N-MC cells were seeded at 10,000 cells/well in 384 well plates one day prior to compound treatment. The concentrations of compounds were tested at appropriate doses ranging from 30 μM to 0.6 nM. After incubation for 48 hours, the cells were lysed with 25 μL of lysis buffer containing protease inhibitors, and total ATXN3 protein levels were assessed by Mesoscale Discovery (MSD) assay developed with one pair of anti-ATXN3 antibodies. The capture and detect antibodies were raised in mouse and rabbit respectively. Anti-rabbit MSD-ST antibody was used for secondary antibody.
ATXN3 recombinant protein was used for standards. The readouts were captured with 35 μL of MSD read buffer and multi-array 384-well high binding plates.

[2] = test system: ATXN3 exon 4 skipped transcripts in SK-N-MC cells; experiment: ATXN3 quantitative splicing assay (qPCR of exon 4 skipped transcripts); format: cell-based; conditions: Human neuroblastoma SK-N-MC cells, 24 h treatment, read-out: ATXN 3 E4 Skipping EC50
Protocol: Human neuroblastoma SK-N-MC cells were plated in 384-well plates at 20,000 cells/well. Twenty-four hours after plating, cells were treated with compounds for 24 hat appropriate concentrations ranging from 30 µM to 0.6 nM (0.3% DMSO). Treated cells were lysed in 15 μL of lysis buffer, and cDNA was synthesized using the Fast Advanced Cells-to-Ct kit Two μL of each cDNA was used in PCR reactions to confirm the exon 4 skipped transcripts of ATXN3. A second set of primers/probe E4E5 was used to detect the transcripts containing exon 4. The third set of primers/probe E8E9 was used to detect total gene level of ATXN3. The qPCR reactions were prepared in 384-well plates in 10 μL volume, using TaqMan™ Fast Advanced Master Mix with primers and probes shown in the table below. Reactions were run in a Quant Studio 6 qPCR instrument with default settings.
The primers and probes are listed below in Table 3.

SMILES | IC50 [1] [µM] | EC50 [2] [µM]
Cc1csc2c(NCc3ccccc3)nnnc12 [Compound 1, N-benzyl-7-methylthieno[3,2-d][1,2,3]triazin-4-amine] | ≥ 10 | ≥ 10
Cc1c(C[C@H](C)N)sc2c(NCc3ccccc3)nnnc12 [Compound 2, (S)-6-(2-aminopropyl)-N-benzyl-7-methylthieno[3,2-d][1,2,3]triazin-4-amine] | ≥ 10 | ≥ 10
Cc1csc2c(NCc3ccncc3)nnnc12 [Compound 3, 7-methyl-N-(pyridin-4-ylmethyl)thieno[3,2-d][1,2,3]triazin-4-amine] | ≥ 10 | ≥ 10
Cc1c(C[C@H](C)N)sc2c(NCc3ccncc3)nnnc12 [Compound 4, (S)-6-(2-aminopropyl)-7-methyl-N-(pyridin-4-ylmethyl)thieno[3,2-d][1,2,3]triazin-4-amine] | 0.501 to 5 | 0.501 to 5
